According to the NIST ThermoML archive (doi:10.1021/je700260f):

Conditions: Liquid, Vibrating tube method

FC(C(F)(F)F)C(F)(F)F [1,1,1,2,3,3,3-heptafluoropropane]
Conditions | mass density [kg/m3]
303.14 K, 14797 kPa | 1456.7
303.14 K, 14835 kPa | 1456.8
303.14 K, 17693 kPa | 1469.8
303.14 K, 21659 kPa | 1486
303.14 K, 21693 kPa | 1486.3
303.14 K, 21731 kPa | 1486.4
303.14 K, 21764 kPa | 1486.4
303.14 K, 21797 kPa | 1486.6
303.14 K, 21835 kPa | 1486.9
303.14 K, 21869 kPa | 1486.9
303.14 K, 21906 kPa | 1486.9
303.14 K, 21939 kPa | 1487.2
303.14 K, 21972 kPa | 1487.3
303.14 K, 22005 kPa | 1487.5
303.14 K, 22039 kPa | 1487.5
303.14 K, 22067 kPa | 1487.7
303.14 K, 22096 kPa | 1487.7
303.14 K, 22140 kPa | 1487.9
303.14 K, 22178 kPa | 1488.1
303.14 K, 22208 kPa | 1488.1
303.14 K, 22251 kPa | 1488.4
303.14 K, 22280 kPa | 1488.4
303.14 K, 22361 kPa | 1488.8
303.14 K, 22404 kPa | 1488.9
303.14 K, 23559 kPa | 1493.4
303.14 K, 23594 kPa | 1493.4
303.14 K, 23621 kPa | 1493.5
303.14 K, 23651 kPa | 1493.8
303.14 K, 23681 kPa | 1493.8
303.14 K, 26459 kPa | 1504
303.14 K, 26487 kPa | 1503.9
303.14 K, 26573 kPa | 1504.3
303.14 K, 26602 kPa | 1504.5
303.14 K, 26627 kPa | 1504.5
303.14 K, 26661 kPa | 1504.7
303.14 K, 26685 kPa | 1504.6
303.14 K, 27097 kPa | 1506
303.14 K, 27130 kPa | 1506.1
303.14 K, 27159 kPa | 1506.3
303.14 K, 27188 kPa | 1506.5
303.14 K, 27217 kPa | 1506.5
303.14 K, 27398 kPa | 1507.2
303.14 K, 27427 kPa | 1507.2
303.14 K, 27494 kPa | 1507.5
303.14 K, 27528 kPa | 1507.5
303.14 K, 27562 kPa | 1507.7
303.14 K, 27605 kPa | 1507.8
303.14 K, 27634 kPa | 1507.9
303.14 K, 27671 kPa | 1508
303.14 K, 27705 kPa | 1508.1
303.14 K, 27735 kPa | 1508.3
303.14 K, 27769 kPa | 1508.4
303.14 K, 27803 kPa | 1508.5
303.14 K, 27840 kPa | 1508.4
303.14 K, 27861 kPa | 1508.6
303.14 K, 27887 kPa | 1508.9
303.14 K, 27917 kPa | 1508.9
303.14 K, 27946 kPa | 1509
303.14 K, 27976 kPa | 1509.1
303.14 K, 28006 kPa | 1509.2
303.14 K, 28040 kPa | 1509.3
303.14 K, 28065 kPa | 1509.5
303.14 K, 28095 kPa | 1509.5
303.14 K, 28120 kPa | 1509.6
303.14 K, 28158 kPa | 1509.6
303.14 K, 28184 kPa | 1509.9
303.14 K, 28206 kPa | 1510
303.14 K, 28241 kPa | 1510
303.14 K, 28271 kPa | 1510.1
303.14 K, 28300 kPa | 1510.2
303.14 K, 28330 kPa | 1510.4
303.14 K, 28355 kPa | 1510.5
303.14 K, 28394 kPa | 1510.6
303.14 K, 31947 kPa | 1522.2
303.14 K, 31984 kPa | 1522.4
303.14 K, 32012 kPa | 1522.5
303.14 K, 32053 kPa | 1522.5
303.14 K, 32086 kPa | 1522.6
303.14 K, 32123 kPa | 1522.8
303.14 K, 32155 kPa | 1522.9
303.14 K, 32187 kPa | 1522.9
303.14 K, 32215 kPa | 1523
303.14 K, 32251 kPa | 1523.2
303.14 K, 32280 kPa | 1523.2
303.14 K, 32322 kPa | 1523.4
303.14 K, 32345 kPa | 1523.3
303.14 K, 32382 kPa | 1523.4
303.14 K, 32418 kPa | 1523.7
303.14 K, 32449 kPa | 1523.8
303.14 K, 32481 kPa | 1523.9
303.14 K, 32513 kPa | 1524
303.14 K, 32542 kPa | 1524.1
303.14 K, 32574 kPa | 1524.1
303.14 K, 32603 kPa | 1524.3
303.14 K, 32646 kPa | 1524.3
303.14 K, 32674 kPa | 1524.4
303.14 K, 32713 kPa | 1524.6
303.14 K, 32736 kPa | 1524.6
303.14 K, 32764 kPa | 1524.8
303.14 K, 32792 kPa | 1524.9
303.14 K, 32830 kPa | 1524.9
303.14 K, 32858 kPa | 1525.1
303.14 K, 32887 kPa | 1525.2
303.14 K, 32920 kPa | 1525.2
303.14 K, 32949 kPa | 1525.4
303.14 K, 32977 kPa | 1525.5
303.14 K, 33020 kPa | 1525.5
303.14 K, 33054 kPa | 1525.6
303.14 K, 33098 kPa | 1525.7
303.14 K, 33133 kPa | 1525.9
303.14 K, 33172 kPa | 1526
303.14 K, 33200 kPa | 1526.1
303.14 K, 33239 kPa | 1526.2
303.14 K, 33268 kPa | 1526.3
303.14 K, 33306 kPa | 1526.5
303.14 K, 33345 kPa | 1526.6
303.14 K, 33378 kPa | 1526.7
303.14 K, 33413 kPa | 1526.7
303.14 K, 33457 kPa | 1526.9
303.14 K, 33496 kPa | 1527.1
303.14 K, 33537 kPa | 1527.1
303.14 K, 33567 kPa | 1527.3
303.14 K, 33615 kPa | 1527.5
303.14 K, 33644 kPa | 1527.5
303.14 K, 33683 kPa | 1527.6
303.14 K, 33717 kPa | 1527.8
303.14 K, 33758 kPa | 1527.8
303.14 K, 33793 kPa | 1527.9
303.14 K, 33838 kPa | 1528
303.14 K, 33877 kPa | 1528.2
303.14 K, 33912 kPa | 1528.4
303.14 K, 34122 kPa | 1529
303.14 K, 34158 kPa | 1529
303.14 K, 34201 kPa | 1529.1
303.14 K, 34250 kPa | 1529.3
303.14 K, 34300 kPa | 1529.4
303.14 K, 34356 kPa | 1529.6
303.14 K, 34400 kPa | 1529.8
303.14 K, 34442 kPa | 1529.9
303.14 K, 34476 kPa | 1529.9
303.14 K, 34501 kPa | 1530.1
303.14 K, 34513 kPa | 1530
303.14 K, 34522 kPa | 1530.1
303.14 K, 34526 kPa | 1530.1
303.15 K, 540 kPa | 1366.5
303.15 K, 560 kPa | 1366.8
303.15 K, 580 kPa | 1367
303.15 K, 600 kPa | 1367.1
303.15 K, 630 kPa | 1367.3
303.15 K, 650 kPa | 1367.5
303.15 K, 680 kPa | 1367.6
303.15 K, 700 kPa | 1368
303.15 K, 720 kPa | 1368.1
303.15 K, 740 kPa | 1368.3
303.15 K, 750 kPa | 1368.5
303.15 K, 780 kPa | 1368.7
303.15 K, 800 kPa | 1368.9
303.15 K, 830 kPa | 1369.2
303.15 K, 850 kPa | 1369.3
303.15 K, 870 kPa | 1369.5
303.15 K, 900 kPa | 1369.8
303.15 K, 920 kPa | 1369.9
303.15 K, 950 kPa | 1370.1
303.15 K, 980 kPa | 1370.4
303.15 K, 1000 kPa | 1370.7
303.15 K, 1030 kPa | 1370.9
303.15 K, 1060 kPa | 1371.1
303.15 K, 1090 kPa | 1371.4
303.15 K, 1110 kPa | 1371.6
303.15 K, 1139 kPa | 1371.8
303.15 K, 1161 kPa | 1372
303.15 K, 1177 kPa | 1372.1
303.15 K, 1199 kPa | 1372.3
303.15 K, 1213 kPa | 1372.5
303.15 K, 1250 kPa | 1372.8
303.15 K, 1267 kPa | 1372.9
303.15 K, 1284 kPa | 1373.1
303.15 K, 1299 kPa | 1373.1
303.15 K, 1317 kPa | 1373.4
303.15 K, 1339 kPa | 1373.5
303.15 K, 1354 kPa | 1373.7
303.15 K, 1374 kPa | 1373.9
303.15 K, 1395 kPa | 1374.1
303.15 K, 1417 kPa | 1374.2
303.15 K, 1440 kPa | 1374.4
303.15 K, 1464 kPa | 1374.6
303.15 K, 1481 kPa | 1374.7
303.15 K, 1505 kPa | 1375
303.15 K, 1522 kPa | 1375
303.15 K, 1548 kPa | 1375.3
303.15 K, 1568 kPa | 1375.5
303.15 K, 1590 kPa | 1375.6
303.15 K, 1608 kPa | 1375.8
303.15 K, 1631 kPa | 1375.9
303.15 K, 1645 kPa | 1376.1
303.15 K, 1666 kPa | 1376.5
303.15 K, 1689 kPa | 1376.4
303.15 K, 1706 kPa | 1376.6
303.15 K, 1732 kPa | 1376.9
303.15 K, 1794 kPa | 1377.4
303.15 K, 1812 kPa | 1377.6
303.15 K, 1859 kPa | 1377.8
303.15 K, 1883 kPa | 1377.9
303.15 K, 1903 kPa | 1378.3
303.15 K, 1924 kPa | 1378.4
